From patent US20040266791A1 (priority 2003, published 2004)
Counter-ions that a name gives are not always drawn.

Key:
[1] = in water at 20° C., calculated on free base
Experimental: The dissolution of the solid can take a period of time until an equilibrium/steady state between the solid and liquid phases is reached. […] This value is taken as the solubility determination.
Then, 2 ml of the suspension was filtered over a micropore filter. Finally, 1.0 ml of the filtrate was freeze-dried, followed by weight determination of the residue. The maximum amount of the salt dissolved (recalculated to the base), was calculated from this weight determination.

[2] = Hygroscopicity test / water content by Karl Fischer titration; type: physicochemical; conditions: for Water content in % at 2 weeks, 40/75: 40° C./75% relative humidity; for Water content in % at 2 weeks, normal: normal conditions (open air); for Water content in % at t = 0: before storage, Karl Fischer; for water content: isolated dried product of the example
Experimental: The salts were subjected to storage at normal conditions (open air) and at 40° C./75% relative humidity. Water content was determined by Karl Fischer titration.

[3] = 1 mg/ml aqueous solution, 2% sorbitol, 0.2% benzoic acid, stress temperatures up to 80° C.
Experimental: Dissolve the benzoic acid in 60% of the water (heat if necessary to 90° C., allow to cool afterwards). […] The sorbitol is dissolved in the remaining water (40%). Combine both solutions and make up the volume with water.

[4] = cited from earlier work

Compound	solubility (calc. on free base) [1]	Water content in % at t = 0 [2]	Water content in % at 2 weeks, 40/75 [2]	Water content in % at 2 weeks, normal [2]	other results
Risperidone tosylate	2 mg/mL				
Risperidone mesylate	>160 mg/mL	0.41%			Water content in % at 2 weeks, 40/75 ([2]; listed as Mesylate): 8.51%; Water content in % at 2 weeks, 40/75 ([2]; listed as risperidone mesylate): 2 weeks: 8.51%; Water content in % at 2 weeks, normal ([2]; listed as Mesylate): 1.38%; Water content in % at 2 weeks, normal ([2]; listed as risperidone mesylate): for 2 weeks: 1.38%; water content [2]: water content: 0.41%
Cc1nc2n(c(=O)c1CCN1CCC(c3noc4cc(F)ccc34)CC1)CCCC2.O=C(O)C=CC(=O)O [Risperidone hydrogenmaleate]		0.09%	0.07%	0.09%	water content [2]: water content: <0.1%; stability of solution [3]: surprisingly stable
risperidone tartrate					room temperature solubility ([4]; reported in U.S. Pat. No. 5,616,587): about 80 mg/ml
Risperidone acetate monohydrate	72 mg/mL	3.78%	3.66%	3.39%	
Cc1nc2n(c(=O)c1CCN1CCC(c3noc4cc(F)ccc34)CC1)CCCC2 [Risperidone dihydrochloride]		0.13%	0.15%	0.15%	water content after exposure to air under ambient conditions for 3 weeks ([2]; 3 weeks, air, ambient conditions): 3 weeks: 0.30%; absorbed or adsorbed water ([2]; absence of drying, or standing at ambient temperature in open air): less than 0.5%; hygroscopicity ([2]; standing at ambient temperature in open air): not hygroscopic; stability of solution [3]: surprisingly stable
Risperidone besylate	6.5 mg/mL				
Cc1nc2n(c(=O)c1CCN1CCC(c3noc4cc(F)ccc34)CC1)CCCC2 [Risperidone base, 3-[2-[4-(6-Fluoro-1,2-benzisoxazol-3-yl)-1-piperidinyl]-ethyl]-6,7,8,9-tetrahydro-2-methyl-4-H-pyrido[1,2-a]-pyrimidin-4-one]					solubility in water ([4]; background statement, no source given): approximately 4 mg/ml
Risperidone Hemifumarate	3 mg/mL				
Risperidone hemitartrate	40 mg/mL	0.28%	0.59%	0.56%	water content [2]: Water content: 0.28%
Risperidone (L)hemimalate	>300 mg/mL	0.89%	1.09%	0.95%	stability of solution [3]: surprisingly stable
